Laboratory results as given in ChEMBL document CHEMBL1201862, “PubChem BioAssay data set” (2004).
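Dose response: 5 concentrations. Exposure: 48 h. Format: 96-well plates. Endpoint: linear interpolation; highest concentration if not reached. The concentration for 50% growth inhibition is given as GI50.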 Calls of active or inactive are those of the source. No stated cut-off is given here; in the data, active = GI50 up to about 1.1 µM and inactive = higher.

What was measured:
Assay in all cases: NCI tumour cell line growth inhibition, 48 h
[1] = system: M19-MEL
[2] = system: DMS-114
[3] = system: KM-20L2
[4] = system: LXFL 529
[5] = system: XF498
[6] = system: SNB-78
[7] = system: DMS-273
[8] = system: RXF 631
[9] = system: HOP-18

Measured: GI50

O=C1c2c(nc3ccccc3c2-c2ccccc2)CN1Nc1ccccc1
inactive: [1] > 100 µM | [2] > 100 µM | [3] > 100 µM | [4] > 100 µM | [5] > 100 µM

CC1CC2(CC[C@@H]1O)OCCO2 (some centres not stated)
inactive: [1] > 100 µM | [6] > 100 µM | [7] > 100 µM | [8] > 100 µM | [4] > 100 µM | [5] > 100 µM

CC(C)C(Sc1nc(-c2ccccc2)c(-c2ccccc2)[nH]1)C(=O)N/N=C/c1ccc([N+](=O)[O-])cc1 (configuration not stated)
inactive: [1] 11.6 µM | [2] 25.9 µM | [6] 24.8 µM | [3] 15.1 µM | [7] 12 µM | [4] 9.98 µM | [5] 16.2 µM

COC(=O)C1=C(c2ccc3c(c2)OCO3)OC(c2ccc3c(c2)OCO3)C1 (configuration not stated)
inactive: [1] > 100 µM | [2] 30.1 µM | [6] > 100 µM | [3] > 100 µM | [7] > 100 µM | [9] 69.7 µM | [8] > 100 µM | [4] 38.4 µM | [5] > 100 µM

COc1ccc2nc(NC(=O)C(=O)NNC(=O)c3ccncc3)sc2c1
inactive: [1] > 100 µM | [2] > 100 µM | [6] > 100 µM | [3] > 100 µM | [9] > 100 µM | [4] > 100 µM | [5] > 100 µM

COc1cc(CC(C(=O)O)C(=O)O)c(OC)cc1CC(C(=O)O)C(=O)O
inactive: [1] > 100 µM | [2] > 100 µM | [6] > 100 µM | [3] > 100 µM | [7] > 100 µM | [4] > 100 µM | [5] > 100 µM

c1ccc2c(c1)C1CCCCCC21N1CCOCC1 (configuration not stated)
inactive: [1] > 100 µM | [2] 38.8 µM | [6] > 100 µM | [3] > 100 µM | [7] 67.1 µM | [4] 50 µM

Cc1nc2c(ccc3ncccc32)[nH]1
inactive: [1] > 100 µM | [2] > 100 µM | [3] > 100 µM | [7] > 100 µM | [9] > 100 µM | [4] > 100 µM

O=C1C2C3C=CC(C2C(=O)N1CN1CCOCC1)C1C2C(=O)N(CN4CCOCC4)C(=O)C2C31 (configuration not stated)
inactive: [1] 22.9 µM | [2] 16.2 µM | [6] 32.9 µM | [3] 27.4 µM | [7] 18.2 µM | [9] 22.1 µM | [8] 11.5 µM | [4] 19.6 µM

O=C1c2ccccc2NC1(c1ccccc1)c1c(-c2ccccc2)[nH]c2ccccc12 (configuration not stated)
inactive: [1] 24.3 µM | [2] 15.3 µM | [6] 33.6 µM | [3] 25.1 µM | [7] 6.84 µM | [9] 44.8 µM | [8] 9.73 µM | [4] 20.4 µM | [5] 44 µM

CCCCCCCCCc1cc(=O)c2ccc(O)cc2o1
inactive: [1] > 100 µM | [2] 11.3 µM | [6] 38.9 µM | [3] > 100 µM | [7] 46.8 µM | [9] > 100 µM | [8] 46.2 µM | [4] 41.7 µM | [5] 86.5 µM

C=C[C@]1(C)CCC2=C(CCC3C2(C)CCC[C@@]3(C)COC(C)=O)C1 (some centres not stated)
inactive: [1] 21.7 µM | [2] 22 µM | [6] 18.7 µM | [3] 17.5 µM | [9] 25.9 µM | [8] 16.7 µM | [4] 17.5 µM | [5] 19.9 µM
